Measured values from patent publication US8017602B2, “N-(2-(2-(5-hydroxy-3-oxo-3,4-dihydro-2H-benzo[b][1,4]oxazin-8-yl)ethylamino)ethyl)-3-(phenethoxy)propanamide derivatives, processes for their preparation, pharmaceutical compositions containing them and their use in therapy” (AstraZeneca AB, priority 2008, dated 2011).
Counter-ions that a name gives are not always drawn.

Legend:
[1] = target: T1, recombinant human Dopamine Subtype D2s receptors (Homo sapiens, UniProt P14416); test: Dopamine D2 selectivity binding assay ([3H]-spiperone); details: inhibition of [3H]-spiperone binding, human D2s membranes; read-out: D2 bind pIC50 (converted)
T1 construct: purchased Perkin Elmer
Method: (§1) Membranes containing recombinant human Dopamine Subtype D2s receptors were obtained from Perkin Elmer. These were diluted in Assay Buffer (50 mM HEPES, 1 mM EDTA, 120 mM NaCl, 0.1% gelatin, pH 7.4) to provide a final concentration of membranes that gave a clear window between maximum and minimum specific binding.
Assays were performed in U-bottomed 96-well polypropylene plates. 30 μL [^3H]-spiperone (0.16 nM final concentration) and 30 μl of test compound (10× final concentration) were added to each test well. For each assay plate 8 replicates were obtained for [^3H]-spiperone binding in the presence of 30 μL vehicle (10% (v/v) DMSO in Assay Buffer; defining maximum binding) or 30 μl Haloperidol (10 μM final concentration; defining non-specific binding (NSB)). Membranes were then added to achieve a final volume of 300 μL. The plates were incubated for 2 h at room temperature and then filtered onto PEI coated GF/B filter plates, pre-soaked for 1 h in Assay Buffer, using a 96-well plate Tomtec cell harvester. Five washes with 250 μl wash buffer (50 mM HEPES, 1 mM EDTA, 120 mM NaCl, pH 7.4) were performed at 4° C. to remove unbound radioactivity. The plates were dried then sealed from underneath using Packard plate sealers and MicroScint-O (50 μl) was added to each well. The plates were sealed (TopSeal A) and filter-bound radioactivity was measured with a scintillation counter (TopCount, Packard BioScience) using a 3-minute counting protocol.
(§2) Total specific binding (B0) was determined by subtracting the mean NSB from the mean maximum binding. NSB values were also subtracted from values from all other wells. […] Data was fitted to a four parameter logistic equation to determine the compound potency, which was expressed as pIC50 (negative log molar concentration inducing 50% inhibition of [^3H]-spiperone binding).

[2] = target: T2, recombinant human adrenergic beta 1 receptors (Homo sapiens, UniProt P08588); test: Adrenergic β1 selectivity binding assay ([125I]-Iodocyanopindolol); details: inhibition of [125I]-Iodocyanopindolol binding, human β1 membranes; read-out: β1 bind p IC50 (converted)
T2 construct: purchased Euroscreen
Method: as §1, with “adrenergic beta 1” for “Dopamine Subtype D2s”, “Euroscreen.” for “Perkin Elmer.”
Assays were performed in U-bottomed 96-well polypropylene plates. 10 μL [^125I]-Iodocyanopindolol (0.036 nM final concentration) and 10 μL of test compound (10× final concentration) were added to each test well. For each assay plate 8 replicates were obtained for [^125I]-Iodocyanopindolol binding in the presence of 10 μl vehicle (10% (v/v) DMSO in Assay Buffer; defining maximum binding) or 10 μl Propranolol (10 μM final concentration; defining non-specific binding (NSB)). Membranes were then added to achieve a final volume of 100 μL. The plates were incubated for 2 h at room temperature and then filtered onto PEI coated GF/B filter plates, pre-soaked for 1 h in Assay Buffer, using a 96-well plate Tomtec cell harvester. Five washes with 250 μL wash buffer (50 mM HEPES, 1 mM EDTA, 120 mM NaCl, pH 7.4) were performed at 4° C. to remove unbound radioactivity. The plates were dried then sealed from underneath using Packard plate sealers and MicroScint-O (50 μl) was added to each well. The plates were sealed (TopSeal A) and filter-bound radioactivity was measured with a scintillation counter (TopCount, Packard BioScience) using a 3-minute counting protocol.
as §2, with “[^125I]-Iodocyanopindolol” for “[^3H]-spiperone”

T1 sequence (P14416 1-414 isoform P14416-2): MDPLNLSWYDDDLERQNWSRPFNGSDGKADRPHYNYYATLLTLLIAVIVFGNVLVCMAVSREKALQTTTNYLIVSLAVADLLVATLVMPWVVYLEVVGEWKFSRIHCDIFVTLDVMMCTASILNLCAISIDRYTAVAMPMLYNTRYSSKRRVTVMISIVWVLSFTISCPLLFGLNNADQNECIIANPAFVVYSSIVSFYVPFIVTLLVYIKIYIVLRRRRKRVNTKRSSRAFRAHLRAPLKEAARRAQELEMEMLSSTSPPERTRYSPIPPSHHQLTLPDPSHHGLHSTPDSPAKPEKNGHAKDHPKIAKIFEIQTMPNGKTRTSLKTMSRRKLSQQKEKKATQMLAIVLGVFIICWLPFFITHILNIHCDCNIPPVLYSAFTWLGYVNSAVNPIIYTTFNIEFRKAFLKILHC
T2 sequence (P08588 whole entry): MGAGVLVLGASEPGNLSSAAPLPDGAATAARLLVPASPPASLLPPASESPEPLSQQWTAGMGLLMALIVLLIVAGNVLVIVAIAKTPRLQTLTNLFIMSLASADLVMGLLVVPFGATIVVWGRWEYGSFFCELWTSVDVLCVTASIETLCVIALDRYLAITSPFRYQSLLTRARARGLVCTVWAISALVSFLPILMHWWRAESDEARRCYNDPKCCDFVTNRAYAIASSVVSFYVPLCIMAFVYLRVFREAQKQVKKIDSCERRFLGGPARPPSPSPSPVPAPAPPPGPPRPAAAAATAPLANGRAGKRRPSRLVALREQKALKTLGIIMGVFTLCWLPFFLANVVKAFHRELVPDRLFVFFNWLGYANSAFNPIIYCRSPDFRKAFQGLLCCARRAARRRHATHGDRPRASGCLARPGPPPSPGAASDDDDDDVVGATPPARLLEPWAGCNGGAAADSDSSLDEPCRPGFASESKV

Row | SMILES | IC50 [1] | IC50 [2]
1 | Cc1c(-c2cccc(CCOCCC(=O)N(CCNCCc3ccc(O)c4c3OCC(=O)N4)C3CCCCC3)c2)cnn1C [Example 37, N-Cyclohexyl-3-(3-(1,5-dimethyl-1H-pyrazol-4-yl)phenethoxy)-N-(2-(2-(5-hydroxy-3-oxo-3,4-dihydro-2H-benzo[b][1,4]oxazin-8-yl)ethylamino)ethyl)propanamide Trifluoroacetic Acid Salt] | 1.58 µM | > 10 µM
2 | CCC[C@@H](C)N(CCNCCc1ccc(O)c2c1OCC(=O)N2)C(=O)CCOCCc1cccc(-c2cnn(C(C)C)c2)c1 [Example 21, (R)—N-(2-(2-(5-Hydroxy-3-oxo-3,4-dihydro-2H-benzo[b][1,4]oxazin-8-yl)ethylamino)ethyl)-3-(3-(1-isopropyl-1H-pyrazol-4-yl)phenethoxy)-N-(pentan-2-yl)propanamide Trifluoroacetic Acid Salt] | 3.16 µM | 6.31 µM
3 | COCCn1cc(-c2cccc(CCOCCC(=O)N(CCNCCc3ccc(O)c4c3OCC(=O)N4)C3CCCCC3)c2)cn1 [Example 36, N-Cyclohexyl-N-(2-(2-(5-hydroxy-3-oxo-3,4-dihydro-2H-benzo[b][1,4]oxazin-8-yl)ethylamino)ethyl)-3-(3-(1-(2-methoxyethyl)-1H-pyrazol-4-yl)phenethoxy)propanamide Trifluoroacetic Acid Salt] | > 7.94 µM | > 10 µM
4 | Cn1cc(-c2cccc(CCOCCC(=O)N(CCNCCc3ccc(O)c4c3OCC(=O)N4)C3CCCCC3)c2F)cn1 [Example 16, N-Cyclohexyl-3-(2-fluoro-3-(1-methyl-1H-pyrazol-4-yl)phenethoxy)-N-(2-(2-(5-hydroxy-3-oxo-3,4-dihydro-2H-benzo[b][1,4]oxazin-8-yl)ethylamino)ethyl)propanamide Trifluoroacetic Acid Salt] | 2 µM | 6.31 µM
5 | O=C1COc2c(CCNCCN(C(=O)CCOCCc3cccc(-c4nn[nH]n4)c3)C3CCCCC3)ccc(O)c2N1 [Example 15, 3-(3-(2H-Tetrazol-5-yl)phenethoxy)-N-cyclohexyl-N-(2-(2-(5-hydroxy-3-oxo-3,4-dihydro-2H-benzo[b][1,4]oxazin-8-yl)ethylamino)ethyl)propanamide Trifluoroacetic Acid Salt] | > 10 µM | > 10 µM
6 | CC(C)[C@@H](C)N(CCNCCc1ccc(O)c2c1OCC(=O)N2)C(=O)CCOCCc1cccc(-c2cnn(C)c2)c1 [Example 09, (R)—N-(2-(2-(5-Hydroxy-3-oxo-3,4-dihydro-2H-benzo[b][1,4]oxazin-8-yl)ethylamino)ethyl)-3-(3-(1-methyl-1H-pyrazol-4-yl)phenethoxy)-N-(3-methylbutan-2-yl)propanamide Trifluoroacetic Acid Salt] | > 10 µM | > 10 µM
7 | CCn1cc(-c2cccc(CCOCCC(=O)N(CCNCCc3ccc(O)c4c3OCC(=O)N4)C3CCCC3)c2)cn1 [Example 24, N-Cyclopentyl-3-(3-(1-ethyl-1H-pyrazol-4-yl)phenethoxy)-N-(2-(2-(5-hydroxy-3-oxo-3,4-dihydro-2H-benzo[b][1,4]oxazin-8-yl)ethylamino)ethyl)propanamide Trifluoroacetic Acid Salt] | 3.16 µM | 5.01 µM
8 | Cn1nnc(-c2cccc(CCOCCC(=O)N(CCNCCc3ccc(O)c4c3OCC(=O)N4)C3CCCCC3)c2)n1 [Example 07, N-Cyclohexyl-N-(2-(2-(5-hydroxy-3-oxo-3,4-dihydro-2H-benzo[b][1,4]oxazin-8-yl)ethylamino)ethyl)-3-(3-(2-methyl-2H-tetrazol-5-yl)phenethoxy)propanamide Trifluoroacetic Acid Salt] | 6.31 µM | > 10 µM
9 | Cc1nc(-c2cccc(CCOCCC(=O)N(CCNCCc3ccc(O)c4c3OCC(=O)N4)C3CCCCC3)c2)[nH]c1C [Example 32, N-Cyclohexyl-3-(3-(4,5-dimethyl-1H-imidazol-2-yl)phenethoxy)-N-(2-(2-(5-hydroxy-3-oxo-3,4-dihydro-2H-benzo[b][1,4]oxazin-8-yl)ethylamino)ethyl)propanamide] | 0.631 µM | 5.01 µM
10 | Cn1nccc1-c1cccc(CCOCCC(=O)N(CCNCCc2ccc(O)c3c2OCC(=O)N3)C2CCCCC2)c1 [Example 03, N-Cyclohexyl-N-(2-(2-(5-hydroxy-3-oxo-3,4-dihydro-2H-benzo[b][1,4]oxazin-8-yl)ethylamino)ethyl)-3-(3-(1-methyl-1H-pyrazol-5-yl)phenethoxy)propanamide Trifluoroacetic Acid Salt] | 2.51 µM | > 10 µM
11 | CCn1ccnc1-c1cccc(CCOCCC(=O)N(CCNCCc2ccc(O)c3c2OCC(=O)N3)C2CCCCC2)c1 [Example 29, N-Cyclohexyl-3-(3-(1-ethyl-1H-imidazol-2-yl)phenethoxy)-N-(2-(2-(5-hydroxy-3-oxo-3,4-dihydro-2H-benzo[b][1,4]oxazin-8-yl)ethylamino)ethyl)propanamide Trifluoroacetic Acid Salt] | 2 µM | > 7.94 µM
12 | CCn1cc(-c2cccc(CCOCCC(=O)N(CCNCCc3ccc(O)c4c3OCC(=O)N4)[C@H](C)C(C)(C)C)c2)cn1 [Example 25, (R)—N-(3,3-Dimethylbutan-2-yl)-3-(3-(1-ethyl-1H-pyrazol-4-yl)phenethoxy)-N-(2-(2-(5-hydroxy-3-oxo-3,4-dihydro-2H-benzo[b][1,4]oxazin-8-yl)ethylamino)ethyl)propanamide Trifluoroacetic Acid Salt] | 3.98 µM | > 10 µM
13 | Cn1cc(-c2cccc(CCOCCC(=O)N(CCNCCc3ccc(O)c4c3OCC(=O)N4)C3CCCCCC3)c2)cn1 [Example 31, N-Cycloheptyl-N-(2-(2-(5-hydroxy-3-oxo-3,4-dihydro-2H-benzo[b][1,4]oxazin-8-yl)ethylamino)ethyl)-3-(3-(1-methyl-1H-pyrazol-4-yl)phenethoxy)propanamide Trifluoroacetic Acid Salt] | 3.98 µM | 5.01 µM
14 | O=C1COc2c(CCNCCN(C(=O)CCOCCc3cccc(-c4cnn(CC5CC5)c4)c3)C3CCCC3)ccc(O)c2N1 [Example 19, N-Cyclopentyl-3-(3-(1-(cyclopropylmethyl)-1H-pyrazol-4-yl)phenethoxy)-N-(2-(2-(5-hydroxy-3-oxo-3,4-dihydro-2H -benzo[b][1,4]oxazin-8-yl)ethylamino)ethyl)propanamide Trifluoroacetic Acid Salt] | 2.51 µM | 3.98 µM
15 | Cc1nc(-c2cccc(CCOCCC(=O)N(CCNCCc3ccc(O)c4c3OCC(=O)N4)C3CCCCC3)c2)no1 [Example 27, N-Cyclohexyl-N-(2-(2-(5-hydroxy-3-oxo-3,4-dihydro-2H-benzo[b][1,4]oxazin-8-yl)ethylamino)ethyl)-3-(3-(5-methyl-1,2,4-oxadiazol-3-yl)phenethoxy)propanamide Trifluoroacetic Acid Salt] | > 5.01 µM | > 10 µM
16 | Cn1cc(-c2cc(CCOCCC(=O)N(CCNCCc3ccc(O)c4c3OCC(=O)N4)C3CCCCC3)ccc2F)cn1 [Example 13, N-Cyclohexyl-3-(4-fluoro-3-(1-methyl-1H-pyrazol-4-yl)phenethoxy)-N-(2-(2-(5-hydroxy-3-oxo-3,4-dihydro-2H-benzo[b][1,4]oxazin-8-yl)ethylamino)ethyl)propanamide Trifluoroacetic Acid Salt] | 3.16 µM | 6.31 µM
17 | O=C1COc2c(CCNCCN(C(=O)CCOCCc3cccc(-c4c[nH]nn4)c3)C3CCCCC3)ccc(O)c2N1 [Example 14, 3-(3-(1H-1,2,3-Triazol-4-yl)phenethoxy)-N-cyclohexyl-N-(2-(2-(5-hydroxy-3-oxo-3,4-dihydro-2H-benzo[b][1,4]oxazin-8-yl)ethylamino)ethyl)propanamide Trifluoroacetic Acid Salt] | 2.51 µM | > 10 µM
